Results published in publication PMC2375318, “Inhibition of the alpha-ν integrins with a cyclic RGD peptide impairs angiogenesis, growth and metastasis of solid tumours in vivo” (British Journal of Cancer, 2002).
Non-standard residues stand in square brackets, D forms with d. Residues, ends and D or L forms follow the SMILES beside them. NMeV = CN[C@H](C(=O)O)C(C)C; βAla = NCCC(=O)O

What was measured:
[1] = system: amelanotic hamster melanoma A-Mel-3; experiment: Tumour growth (tumour area) in the dorsal skinfold chamber by video macroscopy; assay type: in vivo, Syrian Golden hamster; settings: 30 mg kg^−1 i.p. every 12 h; for Tumour area: n=6, mean±s.e.m.
Experimental: (§1) For quantification of tumour angiogenesis, a dorsal skinfold chamber preparation consisting of two symmetrical titanium frames was surgically implanted into the dorsal skin as described earlier in detail ([Asaishi et al, 1981]; [Endrich et al, 1982]). This is considered to cause the least distress upon the animal because the dorsal skin is extremely expansible. Following implantation of the transparent chamber and a recovery period of 48 h from anaesthesia and microsurgery, preparations fulfilling the criteria of an intact microcirculation were implanted with 2×10^5 cells of the amelanotic melanoma of the hamster A-Mel-3 ([Fortner et al, 1961]). Fine polyethylene catheters (PE10, inner diameter 0.28 mm) were permanently inserted into the right jugular vein 48 h before first measurement to allow injection of fluorescent agents for intravital fluorescence microscopy.
(§2) Quantification of tumour angiogenesis using intravital fluorescence microscopy have been described in detail elsewhere ([Asaishi et al, 1981]; [Dellian et al, 1995], [1996]). In brief, the awake animal was trained to crawl into a transparent plastic tube and was placed on a custom-made stage under a modified Leitz microscope (Orthoplan; Leitz, Munich, Germany). FITC-labelled dextran (Sigma, Deisenhofen, Germany; MW 500000; 0.05–0.1 ml of a 5% solution in 0.9% NaCl) as a plasma marker and rhodamine 6G (Molecular Probes, Eugene, OR, USA; 0.04 ml of a 0.05% solution in 0.9% NaCl) to label white blood cells in vivo, were injected i.v. to visualise microcirculation and leucocyte–endothelium interaction, respectively. […] Selective observation of FITC-labelled plasma was possible using epi-illumination with a 100 W mercury lamp attached to a Ploemopack illuminator with a Leitz I2/3 filter block (excitation 450–490 nm, emission ⩽515 nm) and rhodamine 6G-stained leucocytes were visualised using a Leitz N2 filter block (excitation 530–560 nm, emission ⩽580 nm). Intravital microscopy was performed 3, 5, 9 and 13 days after implantation of the tumour cells. At least 3–5 sites of interest per animal were randomly selected in centre and periphery of the tumour. Images were acquired by a SIT video camera (C2400-08; Hamamatsu Herrsching, Germany) and recorded on S-VHS video tape (Sony) for subsequent analysis. Parallel to microvascular observations the area covered by tumour in the chamber preparation was registered on videotape using a Leitz macroscope with video camera (XC-77; Sony) to evaluate tumour growth. The tumour area (mm^2) was quantified from videotape by digital image analysis.
(§3) The cyclic integrin αv antagonist EMD121974 (cyclic Arg-Gly-Asp-D-Phe(N-methyl)Val) ([Dechantsreiter et al, 1999]) and the control peptide EMD135981 (cyclic Arg-β-Ala-Asp-D-Phe(N-methyl)Val) were synthesised and characterised at Merck KgAa (Darmstadt, Germany). In pilot studies pharmacokinetics of the peptides were compared after intravenous and intraperitoneal injection in hamsters. […] Therefore, we chose the following set-up for administration: Peptides were dissolved in PBS (10 mg ml^−1). One day after implantation of tumour cells, animals were randomly assigned to two groups (n=6) and RGD-peptide EMD121974 or control-peptide EMD135981 were given i.p. every 12 h (30 mg kg^−1 b.w.) until the end of the experiments.

[2] = system: amelanotic hamster melanoma A-Mel-3; experiment: Intravital fluorescence microscopy of tumour angiogenesis and microcirculation in the dorsal skinfold chamber; assay type: in vivo, Syrian Golden hamster; settings: for Appearance of tumour vasculature: 3 days after tumour cell implantation, FITC-Dextran plasma marker; for Functional vessel density (FVD): 30 mg kg^−1 b.w. i.p. every 12 h from day 1, n=6, mean±s.e.m.; for Leucocyte–endothelium interaction in tumour microvessels: rhodamine 6G-stained leucocytes
Experimental: as §1, §2
Analysis of microcirculatory parameters was performed off-line from video tape by an image analysis system (Cap Image; Zeintl, Heidelberg, Germany). This system described in detail by [Zeintl et al (1989)] and [Klyscz et al (1997)] allows measurement of functional vessel density (FVD) as a parameter of angiogenic activity ([Dellian et al, 1996]). FVD is defined as the total length of perfused microvessels per unit area of observation and is given in cm^−1. Red blood cell velocity (vRBC) was quantified with the line shift diagram method according to [Klyscz et al (1997)] in mm s^−1. Rolling leucocytes were defined as population of cells temporarily interacting with the vessel wall and thus having a velocity at least 50% below vRBC in the same vessel. Adherent leucocytes were given as the number of leucocytes remaining stationary for at least 30 s per square millimetre of vessel wall surface ([Atherton and Born, 1972]; [Dellian et al, 1996]).
(§4) The cyclic integrin αv antagonist EMD121974 (cyclic Arg-Gly-Asp-D-Phe(N-methyl)Val) ([Dechantsreiter et al, 1999]) and the control peptide EMD135981 (cyclic Arg-β-Ala-Asp-D-Phe(N-methyl)Val) were synthesised and characterised at Merck KgAa (Darmstadt, Germany). In pilot studies pharmacokinetics of the peptides were compared after intravenous and intraperitoneal injection in hamsters. […]

[3] = system: subcutaneous A-Mel-3; experiment: Growth and lymph node metastasis of subcutaneous A-Mel-3 tumours; assay type: in vivo, Syrian Golden hamster; settings: for Subcutaneous tumour volume / growth pattern: calliper measurement every other day from day 5, 30 mg kg^−1 i.p. every 12 h
Experimental: Male Syrian Golden Hamsters (weight, age and housing as described above) were anaesthetised with pentobarbital and the dorsal skin was shaven and chemically depilated (Pilcamed, Schwarzkopf, Germany). Cells (4 to 6×10^6) of the A-Mel-3 were suspended in a 10 μl volume and injected s.c. over the lumbosacral region of the dorsal skin. This is considered to cause the least distress upon the animal because the dorsal skin is extremely expansible. Starting on day 5 after tumour cell implantation, the longer (l) and shorter (w) perpendicular axes and the height (h) of each tumour nodule were measured with callipers every other day. Metastases of the animals were determined by palpation of axillar and inguinal lymph nodes. The day when metastases were first palpable the animal was defined as metastasised. To minimise the pain and distress of the animals no biopsies were taken from the lymph nodes during the observation time. This was due to the known fact that the axillar or inguinal lymph nodes were the most frequent sites of metastasis formation ([Fortner et al, 1961]; [Weiss et al, 1990]). After the end of the experiments when animals were euthanised, biopsies were taken to confirm histologically the invasion of the lymph nodes. Tumour volume was calculated according to the formula Vt=0.837×l×w×h ([Weiss et al, 1990]).
as §3
Results are presented as mean±s.e.m. Data were evaluated using Wilcoxon–Mann–Whitney U and Kruskal–Wallis test, respectively (SigmaStat; Jandel Scientific, San Rafael, CA, USA). Metastasis analysis was performed according to the Kaplan–Meier method ([Kaplan and Meier, 1958]) and the differences were compared for statistical significance using the Cox-F test ([Lee, 1975], [1980]) with the statistical software program Statistica (StatSoft, Inc, 1997, Tulsa, OK, USA). P values smaller than 5% were considered to be significant.

[4] = Pilot pharmacokinetics after intravenous and intraperitoneal injection; assay type: in vivo, hamster; settings: hamsters, pilot study
Experimental: as §3

[5] = Tolerability during treatment (side effects, body weight, behaviour); assay type: in vivo, Syrian Golden hamster; settings: 30 mg kg^−1 i.p. twice a day
Experimental: Experiments were performed with male Syrian Golden Hamsters (6–8 weeks old, 50–60 g body weight (bw)) in accordance with institutional guidelines after approval of the animal committee of the Bavarian state. The animals were housed one per cage and had free access to tap water and standard laboratory food throughout the experiments. Animals were inspected at least two times a day by specialised animal colony staff to assure a normal clinical condition (including appearance, posture, behaviour and physiological responses). Particular attention was given to body weight and any signs of discomfort, ulceration or inflammation. All surgical procedures were performed under pentobarbital anaesthesia (50 mg kg^−1 b.w., i.p.; Nembutal, Sanofia-Leva, Hannover, Germany). The experiments met all the standards required by the UKCCCR guidelines for the welfare of animals in experimental neoplasia (United Kingdom Co-ordinating Committee on Cancer Research ([UKCCCR), 1998]).
as §4

[6] = day 13 after tumour implantation

| SMILES | Tumour area ([1]; day 9) [mm^2] | Tumour area ([1]; day 13) [mm^2] | Appearance of tumour vasculature [2] | Functional vessel density (FVD) [2, 6] [cm⁻¹] | Day on which FVD reached its maximum value ([2]; measurements on days 3, 5, 9 and 13, 30 mg kg^−1 i.p. every 12 h) [days] | Leucocyte–endothelium interaction in tumour microvessels ([2]; 30 mg kg^−1 i.p. every 12 h) | Subcutaneous tumour volume / growth pattern [3] | Day lymph node metastasis first palpable ([3]; in two animals of the group, palpation) [days] | Palpable lymph node metastasis on day 11 ([3]; two days after day 9, palpation of axillar and inguinal lymph nodes) | half-life ([4]; Syrian Golden, hamster, plasma, ip, after intraperitoneal injection, read-out: Plasma half-life time) [min] | Area under the curve, intraperitoneal versus intravenous administration [4] | Side effects in treated animals [5] | Body weight ([5]; control and treated animals) | Tumour area versus controls ([1]; days 3 and 5) | Functional vessel density (FVD) ([2]; day 3 after tumour cell implantation) [cm⁻¹] | Red blood cell velocity (vRBC) versus control peptide ([2]; days 9 and 13, 30 mg kg^−1 i.p. every 12 h) | Vessel diameters, RGD peptide versus control peptide ([2]; intravital microscopy, 30 mg kg^−1 i.p. every 12 h) | Effect on tumour growth of 30 mg kg^−1 every 12 h compared to 30 mg every 2 days ([3]; pilot study) |
| --- | --- | --- | --- | --- | --- | --- | --- | --- | --- | --- | --- | --- | --- | --- | --- | --- | --- | --- |
| CC(C)[C@H]1C(=O)N[C@@H](CCCNC(=N)N)C(=O)NCCC(=O)N[C@@H](CC(=O)O)C(=O)N[C@H](Cc2ccccc2)C(=O)N1C [EMD135981, cyclic Arg-β-Ala-Asp-D-Phe(N-methyl)Val, reference compound] (cyclo(D[dF][NMeV]R[βAla])) | 28.1±3.2 | 80.94±6.1 | dense, chaotic structured network | 108.2 ± 10.6 | 5 | almost absent | nearly exponential growth | 9 | palpable metastasis was found in all control animals |  |  |  |  |  |  |  |  |  |
| CC(C)[C@H]1C(=O)N[C@@H](CCCNC(=N)N)C(=O)NCC(=O)N[C@@H](CC(=O)O)C(=O)N[C@H](Cc2ccccc2)C(=O)N1C [EMD121974, cyclic Arg-Gly-Asp-D-Phe(N-methyl)Val] | 20.5±1.4 | 49.1±4.8 | only individual sprouts as signs of early angiogenesis were visible | 156.9 ± 15.6 |  | almost absent | significantly smaller in comparison to controls on days 7 until 15 |  |  | 47 | similar | no side effects were observed | increased similar in control and treated animals | slightly smaller than controls | 32.7 ± 12.1 | slightly lower | no differences | slightly higher effect on tumour growth |
